Test results as given in patent publication US20230009626A1 (ICHNOS SCIENCES S.A., priority 2018, published 2023).

Target: HPK1 (MAP4K1) (Homo sapiens, UniProt Q92918)
Test: FRET Assay for HPK1 (MAP4K1): one step binding assay, displacement of labeled tracer
Settings: for inhibition at 1 µM: 1 μM compound; for inhibition at 1 µM / inhibition at 10 µM: FRET ratio 665/620, percent of control; for inhibition at 10 µM: 10 μM compound; for IC50: dose response curve, nonlinear regression
How it was run: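 TR-FRET tracer-displacement binding assay. GST-tagged HPK1 (10 nM) and Eu-anti-GST antibody (4 nM) were pre-incubated with compound on ice for 15 min in 50 mM HEPES pH 7.5, 10 mM MgCl2, 1 mM EGTA, 0.01% Brij-35 (3% DMSO final). Kinase Tracer 222 (20 nM) was then added for 1 h at room temperature. IC50 came from nonlinear regression of percent of control; percent inhibition was also given at 1.0 and 10.0 μM.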

HPK1 (MAP4K1), sequence (Q92918 whole entry): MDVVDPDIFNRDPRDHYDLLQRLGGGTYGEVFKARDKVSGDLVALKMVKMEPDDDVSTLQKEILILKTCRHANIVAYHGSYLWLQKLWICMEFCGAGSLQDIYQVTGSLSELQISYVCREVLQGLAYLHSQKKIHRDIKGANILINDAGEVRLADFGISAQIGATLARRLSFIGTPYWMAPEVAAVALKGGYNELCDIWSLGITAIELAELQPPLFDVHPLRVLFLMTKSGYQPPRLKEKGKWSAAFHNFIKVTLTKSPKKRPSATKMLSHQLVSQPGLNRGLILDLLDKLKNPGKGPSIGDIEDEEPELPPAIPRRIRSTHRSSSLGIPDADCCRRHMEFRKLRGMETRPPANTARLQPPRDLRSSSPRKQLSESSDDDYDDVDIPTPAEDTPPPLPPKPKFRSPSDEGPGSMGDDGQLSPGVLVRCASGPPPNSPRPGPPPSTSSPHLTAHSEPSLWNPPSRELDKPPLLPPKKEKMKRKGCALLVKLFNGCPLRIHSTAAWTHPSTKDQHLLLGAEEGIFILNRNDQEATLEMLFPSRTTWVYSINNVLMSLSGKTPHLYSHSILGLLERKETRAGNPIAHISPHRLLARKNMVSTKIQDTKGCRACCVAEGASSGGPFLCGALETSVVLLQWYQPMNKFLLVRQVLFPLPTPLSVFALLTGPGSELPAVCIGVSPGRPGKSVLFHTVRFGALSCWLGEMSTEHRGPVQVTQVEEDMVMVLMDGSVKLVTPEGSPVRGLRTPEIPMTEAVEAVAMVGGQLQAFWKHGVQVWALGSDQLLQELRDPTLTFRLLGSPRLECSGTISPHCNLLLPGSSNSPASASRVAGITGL

SMILES | inhibition at 1 µM [%] | inhibition at 10 µM [%] | IC50 [nM]
CCn1nc(N/C(C)=C2\C(=O)Nc3cnc(-c4c(C)cccc4F)cc32)cc1C [Example 212, (Z)-3-(1-((1-Ethyl-5-methyl-1H-pyrazol-3-yl)amino)ethylidene)-5-(2-fluoro-6-methylphenyl)-1H-pyrrolo[2,3-c]pyridin-2(3H)-one] | 63.1 | 74.4 | < 50
C/C(Nc1cc(C)n(CC(F)F)n1)=C1/C(=O)Nc2cnc(-c3cc(F)ccc3C)cc21 [Example 213, (Z)-3-(1-((1-(2,2-Difluoroethyl)-5-methyl-1H-pyrazol-3-yl)amino)ethylidene)-5-(5-fluoro-2-methylphenyl)-1H-pyrrolo[2,3-c]pyridin-2(3H)-one] | 60.2 | 69.5 | < 50
C/C(Nc1cc(C)n([C@@H](C)C#N)n1)=C1/C(=O)Nc2cnc(-c3cnccc3C)cc21 [Example 214, (S,Z)-2-(5-Methyl-3-((1-(5-(4-methylpyridin-3-yl)-2-oxo-1H-pyrrolo[2,3-c]pyridin-3(2H)-ylidene)ethyl)amino)-1H-pyrazol-1-yl)propanenitrile] | 69.7 | 67.7 | < 50
C/C(Nc1cc(C)n(C(F)F)n1)=C1/C(=O)Nc2cnc(-c3cc(F)ccc3C)cc21 [Example 215, (Z)-3-(1-((1-(Difluoromethyl)-5-methyl-1H-pyrazol-3-yl)amino)ethylidene)-5-(5-fluoro-2-methylphenyl)-1H-pyrrolo[2,3-c]pyridin-2(3H)-one] | 67.3 |  | < 50
C/C(Nc1cc(C)n(C[C@@H](C)O)n1)=C1/C(=O)Nc2cnc(-c3c(C)cccc3F)cc21 [Example 216, (R,Z)-5-(2-Fluoro-6-methylphenyl)-3-(1-((1-(2-hydroxypropyl)-5-methyl-1H-pyrazol-3-yl)amino)ethylidene)-1H-pyrrolo[2,3-c]pyridin-2(3H)-one] | 72.1 | 68.6 | < 50
C/C(Nc1cc2n(n1)CCOC2)=C1/C(=O)Nc2cnc(-c3cc(F)ccc3C)cc21 [Example 218, (Z)-3-(1-((6,7-Dihydro-4H-pyrazolo[5,1-c][1,4]oxazin-2-yl)amino)ethylidene)-5-(5-fluoro-2-methylphenyl)-1H-pyrrolo[2,3-c]pyridin-2(3H)-one] | 77.7 |  | < 50
